Structures can show the parent of a compound that is named as a salt. Ends that are not written are not given here.
What was measured:
[1] = system: conscious spontaneously hypertensive rats (SHR); test: enhancement of the depressor response to exogenous ANP 99-126 in conscious spontaneously hypertensive rats (SHR); type: in vivo, rat (male SHR); conditions: intravenous, 30 minutes before 3 nmole/kg. ANP 99-126; dose to increase the area under the blood pressure over time curve to 600 mm Hg. X minute
Description: The capacity of the test compounds to enhance the depressor response to exogenous ANP 99-126 in conscious spontaneously hypertensive rats (SHR) is determined according to the following procedure.
Indwelling vascular catheters are implanted in the abdominal aorta and vena cava of male SHR rats using the methods of Weeks et al. The rat is allowed at least one week recovery time. On the day of the experiment, the aortic catheter is opened and attached to a Statham transducer via a 3-way stream divider. This system allows for a continuous slow infusion of saline (approximately 10 to 15 μl/min.) from a pressurized reservoir to maintain patency of the arterial catheter. Mean arterial pressure (MAP) is continuously monitored on a strip-chart recorder.
Two hours after beginning the blood pressure measurements, the test compound (or the vehicle used to dissolve the compound) is injected intravenously (1.0 ml./kg.) and flushed in with 0.3 ml. of saline. 30 minutes later, a challenge of 3 nmole/kg. of ANP 99-126 is delivered (1.0 ml./kg. +0.3 ml. saline flush). Sufficient time is allowed after the ANP 99-126 injection to observe the maximal depressor response and a 50% recovery.
MAP is determined before ANP 99-126 administration and at 5 minute intervals until the blood pressure recovers by at least 50%. A mathematical model is used to calculate the area under the curve which extends from the time that the MAP falls to 50% of the maximal depressor response to the time of 50% recovery. Results are plotted as the log dose of inhibitor vs. the area under the curve.
The ED600 is the dose required to increase the area under the blood pressure over time curve for exogenous ANP to 600 mm Hg. X minute.

[2] = target: T1, neutral endopeptidase (Rattus norvegicus, UniProt P07861); test: biochemical; conditions: enzyme purified from rat kidney; Dns-Gly-Phe-Arg 0.5 mM; pH 7.5; 37°, 30 minutes; inhibitor preincubated 10 minutes
T1 sequence (P07861 1-750): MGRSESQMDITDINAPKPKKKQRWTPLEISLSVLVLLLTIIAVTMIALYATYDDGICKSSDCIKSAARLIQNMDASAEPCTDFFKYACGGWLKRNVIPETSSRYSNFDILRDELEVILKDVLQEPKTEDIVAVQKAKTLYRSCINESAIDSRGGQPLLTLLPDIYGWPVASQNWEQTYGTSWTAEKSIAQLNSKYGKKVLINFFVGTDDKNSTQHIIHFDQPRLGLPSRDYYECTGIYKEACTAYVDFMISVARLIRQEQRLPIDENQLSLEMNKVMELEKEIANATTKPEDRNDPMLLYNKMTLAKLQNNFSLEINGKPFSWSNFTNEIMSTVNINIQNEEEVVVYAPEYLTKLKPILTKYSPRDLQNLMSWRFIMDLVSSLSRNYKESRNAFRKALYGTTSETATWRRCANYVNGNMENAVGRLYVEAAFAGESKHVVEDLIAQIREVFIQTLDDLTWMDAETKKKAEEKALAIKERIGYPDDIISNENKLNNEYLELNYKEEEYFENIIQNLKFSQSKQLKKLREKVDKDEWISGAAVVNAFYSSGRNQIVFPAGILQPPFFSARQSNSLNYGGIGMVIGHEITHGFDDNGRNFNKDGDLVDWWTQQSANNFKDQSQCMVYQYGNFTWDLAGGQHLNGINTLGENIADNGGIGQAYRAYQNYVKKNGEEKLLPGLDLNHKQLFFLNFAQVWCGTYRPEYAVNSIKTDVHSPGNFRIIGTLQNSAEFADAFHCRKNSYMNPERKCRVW
Description: The in vitro neutral endopeptidase activity is determined using a fluorometric assay procedure. The assay is based upon the cleavage of the fluorescent dansylated tripeptide Dns-Gly-Phe-Arg to form Dns-Gly. The latter is extracted from the acidified mixture by ethyl acetate and is strongly fluorescent.
The incubation mixture employed for the assay contains the substance Dns-Gly-Phe-Arg (0.5 mM), tris(hydroxymethyl)aminomethane -HCl buffer (pH 7.5, 50 mM), an enzyme preparation in 0.05% Triton X-100, and water or inhibitor diluted to a final volume of 0.25 ml. The enzyme preparation is purified from rat kidney according to the procedure described by Almenoff et al. in Biochemistry Vol. 22, p. 590-599 (1983). The inhibitor is preincubated for 10 minutes with the enzyme preparation and buffer before the reaction is initiated by the addition of the substrate. Incubation is carried out at 37° for 30 minutes and the reaction is stopped by the addition of 0.25 ml. 1N HCl and extraction of the Dns-Gly product into 1.5 ml. of ethyl acetate. Relative fluorescent intensity (RFI) of the ethyl acetate extract is measured using a Ferrand Spectofluorometer at excitation and emission wavelengths of 342 and 508 nm., respectively, corrected for the RFI of a zero-time control, and compared with assays lacking inhibitor.
Runs are made at different concentrations of test compound and by use of a mathematical model the IC50 is determined. The IC50 is the concentration of test compound that inhibits activity of the enzyme by 50%.

[3] = system: conscious mineralocorticoid hypertensive rats; test: depressor response in conscious mineralocorticoid hypertensive rats; type: in vivo, rat (male Sprague-Dawley); conditions: dose 300 μmole/kg., intravenous; DOCA hypertensive rats; MAP recorded for at least 4 hours
Description: The depressor response to test compounds in conscious mineralocorticoid hypertensive rats is determined according to the following procedure.
Male Sprague-Dawley rats (approximately 150 grams) are anesthetized with sodium pentobarbital and indwelling vascular catheters are implanted in the abdominal aorta and vena cava using the methods of Weeks et al., Biological Medicine, Vol. 104, p. 646 (1960).
Before closing the abdominal incision, a pellet containing 100 mg. of deoxycorticosterone acetate (DOCA) is placed in the peritoneal cavity. DOCA is released from the pellet at a constant rate for 21 days.
The rats are housed individually and given saline (0.9% sodium chloride) to drink and fed normal rat chow for the next 3 to 4 weeks. Afterwards, the catheters are opened and mean arterial pressure (MAP) is measured via a Statham pressure transducer and a strip chart recorder. Patency of the arterial catheter is maintained by the infusion of saline from a pressurized reservoir at approximately 10 to 15 μl/min.
Following 2 hours of acclimation, the test compound is injected intravenously. Each dose is delivered as 1.0 ml./kg. +0.03 ml. (an amount sufficient to fill the void volume of the catheter). The MAP is recorded for at least 4 hours.

[4] = system: man; conditions: cited from earlier work
[5] = system: neutral endopeptidase; test: inhibition of neutral endopeptidase; type: biochemical
[6] = system: pig kidney microvillar membranes; conditions: in vitro; cited from earlier work
[7] = system: neutral endopeptidase; conditions: in vivo; cited from earlier work
[8] = system: conscious spontaneously hypertensive rats; test: renal function (sodium excretion) following intravenous administration of test compounds; type: in vivo, rat
Description: The renal function following administration of test compounds is determined according to the following procedure.
A catheter is contructed as follows. Pieces of 18 gauge metal tubing (about 1/4 inch in length) are inserted into two lengths of microbore Tygon tubing (0.04 inch inner diameter ×0.07 inch outer diameter). A short segment of Tygon tubing of larger diameter (0.104 inch inner diameter x 0.144 inch outer diameter) is sealed around both metal fittings. This end is to be implanted in the bladder. In order to keep the tip from becoming plugged by particulate matter, 4 holes are punched along its length.
To implant the catheters, male rats are anesthetized with sodium pentobarbital and the urinary bladder is exposed via a midline abdominal incision. A small slit is made in the dome of the urinary bladder and the tip of the catheter is inserted into the lumen. […]
During the course of the experiment, urine is collected in tared containers at specified intervals. Urine volume is determined gravimetrically (1 gram =1 ml.) and the rate of flow is calculated from the total volume/time of collection (ml./min). Sodium concentrations are measured using a Nova-1 Ion Selective Electrode Analyzer. Electrolyte excretion rates (μ Eq./min.) are calculated by multiplying the ion concentration (μ Eq./ml.) by the urine flow (mi./min.). […]

[9] = system: enkephalinase; conditions: cited from earlier work

Row | IC50 [2] [nM] | Compound | ED600 [1] [µmol/kg] | Change in MAI [3] | also measured
1 | 6 | C[C@H](NC(=O)C(CS)Cc1ccccc1)C(=O)N1CCC[C@H]1C(=O)O (mixture of isomers) [Example 64, (±)-1-[N-[2-(Mercaptomethyl)-1-oxo-3-phenylpropyl]-L-alanyl]-L-proline] | – | -44 ± 5 mm. of Hg. | –
2 | 6.9 | CC(C)CC(CS)C(=O)N[C@@H](Cc1c[nH]c2ccccc12)C(=O)O (mixture of isomers) [Example 35, (±)-N-[2-(Mercaptomethyl)-4-methyl-1-oxopentyl]-L-tryptophan] | 9.2 | -56 ± 3 mm. of Hg. | –
3 | 15 | C[C@H](CS)C(=O)N[C@@H](Cc1ccccc1)C(=O)O [Example 39, (S)-N-(3-Mercapto-2-methyl-1-oxopropyl)-L-phenylalanine] | – | -55 ± 4 mm. of Hg. | –
4 | 3.8 | CC(C)C[C@H](NP(=O)(O)O[C@@H]1O[C@@H](C)[C@H](O)[C@@H](O)[C@H]1O)C(=O)N[C@@H](Cc1c[nH]c2ccccc12)C(=O)O [Example 72, N-(α-L-Rhamnopyranosyloxyhydroxyphosphinyl)-L-leucyl-L-tryptophan] | – | – | inhibition of neutral endopeptidase [5]: inhibits neutral endopeptidase; hydrolysis of α-human atrial natriuretic peptide [6]: suppressed; excretion of kinins [7]: increased excretion of kinins; sodium excretion [7]: increased sodium excretion; urinary kininase activity [7]: decreased urinary kininase activity; urine volume [7]: increased urine volume
5 | 26 | O=C(O)CCCCCCNC(=O)C(CS)Cc1ccccc1 (centres unmarked) [Example 52, 7-[[2-(Mercaptomethy1)-1-oxo-3-phenylpropyl]amino]-heptanoic acid] | 15.5 | -41 ± 8 mm. of Hg. | increase in the rate of sodium excretion ([8]; intravenous 30 mg./kg. plus 3 mg./kg./min. for 20 minutes, conscious spontaneously hypertensive rats): 2.6 fold
6 | 720 | CC(CS)C(=O)N[C@@H](CCCNC(=N)N)C(=O)O (mixture of isomers) [Example 3, N-(DL-3-Mercapto-2-methyl-1-oxopropyl)-L-arginine] | – | – | –

The next lines start with the compound.

Row | Compound | IC50 [2] [nM] | ED600 [1] [µmol/kg] | Change in MAI [3] | also measured
7 | CC(C)C[C@H](NC(=O)C(CS)Cc1ccccc1)C(=O)O (single isomer, unassigned; isomer b) [Example 36, N-[2-(Mercaptomethyl)-1-oxo-3-phenylpropyl]-L-leucine (isomer B)] | – | 8.22 | – | –
8 | human ANF 99-126: putative circulating hormone in man, a 28 amino acid peptide called human ANF 99-126 (SLRRSSCFGGRMDRIGAQSGLGCNSFRY; ends and bridges not checked; cysteine pairing not given here; UniProt P01160 124-151, looked up) | – | – | – | effect of exogenous administration to man [4]: diuresis, natriuresis, and a fall in blood pressure
9 | CC(C)C[C@H](NC(=O)C(CS)Cc1ccccc1)C(=O)O (single isomer, unassigned; isomer a) [Example 1, N-[2-(Mercaptomethyl)-1-oxo-3-phenylpropyl]-L-leucine (Isomer A)] | – | 22.8 | -65 ± 14 mm. of Hg. | increase in sodium excretion ([8]; intravenous 100 mg./kg.): 2.4 fold
10 | C[C@H](NC(=O)[C@@H](S)Cc1ccccc1)C(=O)N1CCC[C@H]1C(=O)O [Example 66, (S)-1-[N-(2-Mercapto-1-oxo-3-phenylpropyl)-L-alanyl]-L-proline] | 78 | 2.93 | – | –
11 | O=C(O)CNC(=O)C(CS)Cc1ccccc1 (centres unmarked) [thiorphan, [(D,L)-3-mercapto-2-benzylpropanol]glycine] | – | – | – | inhibitor of enkephalinase in vitro [9]: nanomolar concentrations
12 | CC(CS)C(=O)N[C@@H](CCC(=O)O)C(=O)O (mixture of isomers) [Example 19, (±)-N-(3-Mercapto-2-methyl-1-oxopropyl)-L-glutamic acid, 1,1-dimethylethanamine salt (1:2)] | 110 | – | – | –
13 | C[C@H](CS)C(=O)N[C@@H](CC(=O)O)C(=O)O [Example 42, (S)-N-(3-Mercapto-2-methyl-1-oxopropyl)-L-aspartic acid] | 36 | – | – | –

Source: patent US5496805A, “Inhibitors of neutral endopeptidase” (priority 1990, dated 1996)
